Results from paper PMC9500072, “Topical application of an irreversible small molecule inhibitor of lysyl oxidases ameliorates skin scarring and fibrosis” (Nature Communications, 2022).

How the values were obtained:
[1] = biological target: T1, Rat Fibroblast LOX (Rattus norvegicus, UniProt P16636); assay: Amine oxidase inhibition profile, rat fibroblast LOX; format: biochemical
T1 construct: Fibroblast LOX; endogenous in cells; host or cells: rat fibroblasts
T1 sequence (P16636 163-411): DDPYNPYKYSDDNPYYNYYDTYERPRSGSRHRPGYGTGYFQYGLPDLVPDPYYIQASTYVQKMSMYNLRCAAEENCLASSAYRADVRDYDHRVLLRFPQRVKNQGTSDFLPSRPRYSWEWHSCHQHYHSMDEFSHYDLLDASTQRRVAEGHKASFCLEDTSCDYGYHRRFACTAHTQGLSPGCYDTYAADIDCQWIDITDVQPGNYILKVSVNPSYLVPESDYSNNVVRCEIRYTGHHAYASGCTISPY
Method: The measurement of the enzymatic activity of all lysyl oxidase family members was based on the detection of hydrogen peroxide with an Amplex-Red oxidation assay, as previously described; miniaturized in 384 well formats, with the appropriate combination of substrate and assay buffer for each individual enzyme. After a 30 min pre-incubation of the enzyme at 37 °C with the test compound (or with different incubation times for the time-dependency assay), one volume of reaction mixture containing 120 μM Amplex Red (AR) (Life Technologies), 1.5 U/mL horseradish peroxidase (HRP) (Sigma-Aldrich) and the specific substrate was added to each sample. The relative fluorescence units (RFU) were then measured every 2.5 min for 30 min at 37 °C, excitation 565 nm and emission 590, on a BMG Clariostar Microplate Reader. All the substrates were used at concentrations corresponding to their Km towards the corresponding enzyme, or with a range of different concentrations for the substrate competition experiments.
Lysyl oxidases assay buffer contained 1.2 M urea, 50 mM sodium borate buffer, pH 8.2 and 100 µM β-aminoproprionitrile (BAPN, Sigma-Aldrich) was used for low control.
Supplem entary Materi als:
Supplementary Table S1: Amine oxidase inhibition profile of PXS -4787, PXS-6302 and
Supplementary Table S2: Perm eability profile of PXS -6302.

[2] = biological target: T2, Rat Recombinant LOXL2 (Rattus norvegicus, UniProt B5DF27); assay: Amine oxidase inhibition profile, rat LOXL2; format: biochemical
T2 construct: made in house; host or cells: HEK-293 clones (provided by Dr. Fernando Rodríguez Pascual)
T2 sequence (B5DF27 26-776): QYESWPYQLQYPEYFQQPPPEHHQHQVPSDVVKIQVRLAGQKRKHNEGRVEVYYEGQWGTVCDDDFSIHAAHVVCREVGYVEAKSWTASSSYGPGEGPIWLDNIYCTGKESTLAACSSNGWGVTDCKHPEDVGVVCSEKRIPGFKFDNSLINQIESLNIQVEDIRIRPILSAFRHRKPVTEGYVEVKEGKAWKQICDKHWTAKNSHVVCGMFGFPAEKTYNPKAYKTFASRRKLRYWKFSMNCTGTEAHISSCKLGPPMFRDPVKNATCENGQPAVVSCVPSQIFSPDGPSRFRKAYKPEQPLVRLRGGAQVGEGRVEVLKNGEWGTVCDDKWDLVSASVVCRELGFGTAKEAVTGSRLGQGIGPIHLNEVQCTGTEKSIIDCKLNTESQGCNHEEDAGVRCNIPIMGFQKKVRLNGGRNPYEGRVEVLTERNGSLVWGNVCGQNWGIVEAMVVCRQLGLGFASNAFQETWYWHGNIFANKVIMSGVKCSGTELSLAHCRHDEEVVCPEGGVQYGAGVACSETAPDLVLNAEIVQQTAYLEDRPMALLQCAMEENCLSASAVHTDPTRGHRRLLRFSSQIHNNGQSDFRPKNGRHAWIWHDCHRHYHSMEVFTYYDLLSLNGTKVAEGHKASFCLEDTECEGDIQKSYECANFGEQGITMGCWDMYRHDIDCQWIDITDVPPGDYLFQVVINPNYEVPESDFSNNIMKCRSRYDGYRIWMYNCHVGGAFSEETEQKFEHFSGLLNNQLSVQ

[3] = biological target: Dopamine D2S (Homo sapiens, UniProt P14416); assay: Eurofins panel 219700; format: binding
[4] = system: Calcium Channel L-Type, Dihydropyridine; assay: Eurofins panel 214600; format: binding, rat
[5] = biological target: Muscarinic M2 (Homo sapiens, UniProt P08172); assay: Eurofins panel 252710; format: binding
Muscarinic M2, sequence (P08172 whole entry): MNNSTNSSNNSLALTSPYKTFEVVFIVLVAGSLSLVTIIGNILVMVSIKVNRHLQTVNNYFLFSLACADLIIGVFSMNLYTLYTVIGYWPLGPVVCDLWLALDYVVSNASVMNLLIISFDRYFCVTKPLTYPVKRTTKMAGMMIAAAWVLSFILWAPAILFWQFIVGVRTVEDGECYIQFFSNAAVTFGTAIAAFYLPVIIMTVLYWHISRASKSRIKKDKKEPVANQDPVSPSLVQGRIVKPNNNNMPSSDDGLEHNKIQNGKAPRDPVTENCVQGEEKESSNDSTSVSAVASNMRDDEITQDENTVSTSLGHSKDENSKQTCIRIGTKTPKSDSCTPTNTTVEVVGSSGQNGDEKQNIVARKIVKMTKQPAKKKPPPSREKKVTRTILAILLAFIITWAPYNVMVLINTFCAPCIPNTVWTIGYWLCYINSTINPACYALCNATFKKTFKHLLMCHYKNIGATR

[6] = biological target: Opiate δ1 (OP1, DOP) (Homo sapiens, UniProt P41143); assay: Eurofins panel 260130; format: binding
Opiate δ1 (OP1, DOP), sequence (P41143 whole entry): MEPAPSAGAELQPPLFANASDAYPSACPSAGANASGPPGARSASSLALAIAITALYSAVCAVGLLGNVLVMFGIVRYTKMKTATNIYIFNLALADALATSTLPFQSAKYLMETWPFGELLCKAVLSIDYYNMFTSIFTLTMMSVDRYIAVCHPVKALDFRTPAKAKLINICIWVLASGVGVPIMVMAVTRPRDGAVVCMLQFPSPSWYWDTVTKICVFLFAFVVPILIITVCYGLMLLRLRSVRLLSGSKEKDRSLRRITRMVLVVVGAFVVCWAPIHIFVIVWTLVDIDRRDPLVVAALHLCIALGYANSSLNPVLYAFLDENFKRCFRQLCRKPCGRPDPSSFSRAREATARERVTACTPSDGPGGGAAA

[7] = biological target: Opiate κ(OP2, KOP) (Homo sapiens, UniProt P41145); assay: Eurofins panel 260210; format: binding
Opiate κ(OP2, KOP), sequence (P41145 whole entry): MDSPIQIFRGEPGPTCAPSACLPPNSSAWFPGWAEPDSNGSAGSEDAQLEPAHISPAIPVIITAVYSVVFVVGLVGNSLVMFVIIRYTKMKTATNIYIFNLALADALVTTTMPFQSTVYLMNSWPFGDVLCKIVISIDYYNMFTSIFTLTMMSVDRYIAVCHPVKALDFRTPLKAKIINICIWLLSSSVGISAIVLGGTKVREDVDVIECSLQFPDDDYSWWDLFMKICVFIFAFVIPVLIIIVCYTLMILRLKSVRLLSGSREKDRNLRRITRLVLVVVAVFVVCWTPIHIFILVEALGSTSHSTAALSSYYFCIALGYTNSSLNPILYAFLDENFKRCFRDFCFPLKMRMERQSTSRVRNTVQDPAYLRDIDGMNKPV

[8] = biological target: Histamine H2 (Homo sapiens, UniProt P25021); assay: Eurofins panel 239710; format: binding
Histamine H2, sequence (P25021 whole entry): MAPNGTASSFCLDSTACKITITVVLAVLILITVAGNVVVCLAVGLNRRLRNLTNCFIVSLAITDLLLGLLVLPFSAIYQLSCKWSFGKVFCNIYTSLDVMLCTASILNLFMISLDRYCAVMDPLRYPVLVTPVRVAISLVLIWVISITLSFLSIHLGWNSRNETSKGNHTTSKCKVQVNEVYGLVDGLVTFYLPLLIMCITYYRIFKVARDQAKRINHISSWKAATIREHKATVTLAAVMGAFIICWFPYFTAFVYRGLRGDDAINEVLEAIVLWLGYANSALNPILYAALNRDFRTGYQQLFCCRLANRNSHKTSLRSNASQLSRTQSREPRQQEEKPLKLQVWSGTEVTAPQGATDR

[9] = biological target: Serotonin (5-Hydroxytryptamine) 5-HT3 (Homo sapiens, UniProt P46098); assay: Eurofins panel 271910; format: binding
Serotonin (5-Hydroxytryptamine) 5-HT3, sequence (P46098 24-478): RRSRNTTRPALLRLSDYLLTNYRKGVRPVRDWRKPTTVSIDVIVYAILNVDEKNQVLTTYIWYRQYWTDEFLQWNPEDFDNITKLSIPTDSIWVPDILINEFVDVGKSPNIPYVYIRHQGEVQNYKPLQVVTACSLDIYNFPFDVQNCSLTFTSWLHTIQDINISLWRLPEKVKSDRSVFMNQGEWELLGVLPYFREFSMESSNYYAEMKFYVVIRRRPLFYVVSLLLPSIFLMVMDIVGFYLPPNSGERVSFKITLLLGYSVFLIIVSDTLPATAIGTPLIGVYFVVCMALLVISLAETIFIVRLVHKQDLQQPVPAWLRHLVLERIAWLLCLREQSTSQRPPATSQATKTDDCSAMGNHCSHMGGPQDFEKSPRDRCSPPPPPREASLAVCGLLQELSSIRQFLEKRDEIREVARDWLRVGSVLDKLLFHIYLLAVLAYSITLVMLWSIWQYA

[10] = biological target: Glucocorticoid (Homo sapiens, UniProt P04150); assay: Eurofins panel 232030; format: binding
Glucocorticoid, sequence (P04150 whole entry): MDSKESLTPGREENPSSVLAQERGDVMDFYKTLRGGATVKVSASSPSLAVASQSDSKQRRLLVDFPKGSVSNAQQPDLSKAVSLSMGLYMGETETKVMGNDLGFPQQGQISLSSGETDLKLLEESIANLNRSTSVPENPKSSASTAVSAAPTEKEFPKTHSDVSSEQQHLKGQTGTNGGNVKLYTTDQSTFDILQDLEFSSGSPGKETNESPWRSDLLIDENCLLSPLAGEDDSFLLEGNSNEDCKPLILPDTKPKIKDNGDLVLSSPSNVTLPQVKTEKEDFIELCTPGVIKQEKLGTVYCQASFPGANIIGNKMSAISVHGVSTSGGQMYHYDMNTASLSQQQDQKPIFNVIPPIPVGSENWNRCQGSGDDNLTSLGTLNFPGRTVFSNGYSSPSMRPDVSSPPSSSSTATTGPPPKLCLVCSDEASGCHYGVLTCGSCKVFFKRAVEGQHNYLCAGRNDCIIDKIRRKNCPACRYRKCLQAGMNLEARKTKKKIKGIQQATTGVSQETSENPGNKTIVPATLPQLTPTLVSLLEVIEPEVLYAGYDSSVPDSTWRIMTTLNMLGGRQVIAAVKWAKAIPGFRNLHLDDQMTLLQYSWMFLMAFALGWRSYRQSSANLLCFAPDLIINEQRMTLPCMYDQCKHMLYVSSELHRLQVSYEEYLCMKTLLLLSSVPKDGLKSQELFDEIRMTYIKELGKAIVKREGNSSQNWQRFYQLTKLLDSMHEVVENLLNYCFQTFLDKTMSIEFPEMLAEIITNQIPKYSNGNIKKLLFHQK

[11] = system: Androgen (Testosterone); assay: Eurofins panel 206000; format: binding, human
[12] = biological target: Dopamine D1 (Homo sapiens, UniProt P21728); assay: Eurofins panel 219500; format: binding
Dopamine D1, sequence (P21728 whole entry): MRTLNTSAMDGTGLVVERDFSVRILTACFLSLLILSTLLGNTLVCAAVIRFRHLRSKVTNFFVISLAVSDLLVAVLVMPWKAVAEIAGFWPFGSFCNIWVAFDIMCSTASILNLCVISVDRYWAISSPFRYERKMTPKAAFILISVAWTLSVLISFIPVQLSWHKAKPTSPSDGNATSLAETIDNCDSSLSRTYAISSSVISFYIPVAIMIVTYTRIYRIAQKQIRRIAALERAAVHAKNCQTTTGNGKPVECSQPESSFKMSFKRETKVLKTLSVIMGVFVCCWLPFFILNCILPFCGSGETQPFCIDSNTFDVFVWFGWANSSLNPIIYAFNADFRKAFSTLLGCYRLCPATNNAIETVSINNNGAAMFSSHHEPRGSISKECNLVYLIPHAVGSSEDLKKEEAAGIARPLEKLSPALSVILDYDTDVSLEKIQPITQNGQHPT

[13] = biological target: Transporter, Dopamine (DAT) (Homo sapiens, UniProt Q01959); assay: Eurofins panel 220320; format: binding
Transporter, Dopamine (DAT), sequence (Q01959 whole entry): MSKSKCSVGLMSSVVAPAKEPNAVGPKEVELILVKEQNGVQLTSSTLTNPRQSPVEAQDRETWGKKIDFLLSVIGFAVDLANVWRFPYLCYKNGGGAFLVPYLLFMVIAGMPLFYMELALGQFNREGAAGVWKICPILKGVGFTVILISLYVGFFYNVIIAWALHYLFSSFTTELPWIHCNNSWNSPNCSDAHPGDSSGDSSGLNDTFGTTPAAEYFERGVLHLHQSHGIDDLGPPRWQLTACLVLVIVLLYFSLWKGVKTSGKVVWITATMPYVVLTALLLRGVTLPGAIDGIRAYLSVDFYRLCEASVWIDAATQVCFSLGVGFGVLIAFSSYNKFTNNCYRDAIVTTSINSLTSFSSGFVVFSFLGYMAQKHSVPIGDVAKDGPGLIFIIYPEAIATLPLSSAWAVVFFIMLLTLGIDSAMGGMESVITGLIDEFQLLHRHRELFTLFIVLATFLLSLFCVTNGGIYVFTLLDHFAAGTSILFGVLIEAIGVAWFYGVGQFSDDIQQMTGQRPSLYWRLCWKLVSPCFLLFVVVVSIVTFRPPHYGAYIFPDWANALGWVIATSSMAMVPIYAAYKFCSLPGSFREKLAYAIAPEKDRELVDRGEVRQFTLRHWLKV

[14] = biological target: Transporter, Serotonin (5- Hydroxytryptamine) (SERT) (Homo sapiens, UniProt P31645); assay: Eurofins panel 274030; format: binding
Transporter, Serotonin (5- Hydroxytryptamine) (SERT), sequence (P31645 whole entry): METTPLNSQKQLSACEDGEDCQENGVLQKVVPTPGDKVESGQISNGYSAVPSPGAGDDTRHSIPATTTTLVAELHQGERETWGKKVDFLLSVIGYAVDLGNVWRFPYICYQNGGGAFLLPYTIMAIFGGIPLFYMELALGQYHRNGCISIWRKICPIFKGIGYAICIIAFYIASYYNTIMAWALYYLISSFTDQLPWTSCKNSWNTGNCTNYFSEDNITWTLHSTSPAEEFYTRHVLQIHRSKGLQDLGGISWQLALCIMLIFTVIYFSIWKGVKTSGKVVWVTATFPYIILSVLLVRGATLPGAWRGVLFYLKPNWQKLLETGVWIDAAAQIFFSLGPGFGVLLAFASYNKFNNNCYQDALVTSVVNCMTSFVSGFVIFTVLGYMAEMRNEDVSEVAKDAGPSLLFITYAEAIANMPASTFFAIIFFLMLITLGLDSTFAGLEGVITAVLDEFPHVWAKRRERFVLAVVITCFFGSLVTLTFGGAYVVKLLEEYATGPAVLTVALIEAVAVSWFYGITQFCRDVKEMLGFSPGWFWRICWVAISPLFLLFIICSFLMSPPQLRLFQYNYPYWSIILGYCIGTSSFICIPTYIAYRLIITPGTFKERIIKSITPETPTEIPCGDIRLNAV

[15] = Systemic exposure in rat at 1000 mg/kg/day; format: in vivo; conditions: daily for 1 week
[16] = system: GABAA, Flunitrazepam, Central; assay: Eurofins panel 226600; format: binding, rat
[17] = system: Sodium Channel, Site 2; assay: Eurofins panel 279510; format: binding, rat
[18] = biological target: Muscarinic M1 (Homo sapiens, UniProt P11229); assay: Eurofins panel 252610; format: binding
Muscarinic M1, sequence (P11229 whole entry): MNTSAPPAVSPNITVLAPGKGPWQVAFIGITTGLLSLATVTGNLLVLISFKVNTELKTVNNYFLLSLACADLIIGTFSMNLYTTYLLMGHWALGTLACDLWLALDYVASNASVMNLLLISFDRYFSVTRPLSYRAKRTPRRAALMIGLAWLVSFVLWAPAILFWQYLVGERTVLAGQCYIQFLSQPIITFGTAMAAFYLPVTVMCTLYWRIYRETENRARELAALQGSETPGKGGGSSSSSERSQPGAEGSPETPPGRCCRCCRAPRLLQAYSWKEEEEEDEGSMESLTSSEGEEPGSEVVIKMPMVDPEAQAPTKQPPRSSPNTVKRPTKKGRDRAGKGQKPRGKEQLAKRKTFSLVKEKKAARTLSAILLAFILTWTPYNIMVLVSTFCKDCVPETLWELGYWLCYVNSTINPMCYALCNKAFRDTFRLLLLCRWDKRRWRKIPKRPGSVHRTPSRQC

**Q.** For `N#CCCN` [BAPN, β-aminoproprionitrile, reference compound], which IC50 [1] is on record?
**A.** 2120 nM

**Q.** And the “Rat Fibroblast LOX pIC50±SD” value [1]?
**A.** 5.7 ± 0.1

**Q.** And the IC50 [2]?
**A.** 650 nM

**Q.** What about the “Rat Recombinant LOXL2 pIC50±SD” value [2] of the same compound?
**A.** 6.2 ± 0.2

**Q.** Which inhibition at 10 µM ([3]; 10 µM) does the source give for `NC/C=C(\F)CS(=O)(=O)c1ccccc1` [PXS-4787] here?
**A.** 13%

**Q.** What about the “% Inh.” value ([4]; 10 µM) of the same compound?
**A.** -4%

**Q.** And the inhibition at 10 µM ([5]; 10 µM)?
**A.** 7%

**Q.** What about the inhibition at 10 µM ([6]; 10 µM) of the same compound?
**A.** 5%

**Q.** And the IC50 [1]?
**A.** 4570 nM

**Q.** And the inhibition at 10 µM ([7]; 10 µM)?
**A.** 3%

**Q.** What about the inhibition at 10 µM ([8]; 10 µM) of the same compound?
**A.** -4%

**Q.** What about the inhibition at 10 µM ([9]; 10 µM) of the same compound?
**A.** 6%

**Q.** And the IC50 [2]?
**A.** 590 nM

**Q.** What about the inhibition at 10 µM ([10]; 10 µM) of the same compound?
**A.** 3%

**Q.** What about the “% Inh.” value ([11]; 10 µM) of the same compound?
**A.** 2%

**Q.** What about the inhibition at 10 µM ([12]; 10 µM) of the same compound?
**A.** 3%

**Q.** What about the inhibition at 10 µM ([13]; 10 µM) of the same compound?
**A.** 6%

**Q.** And the inhibition at 10 µM ([14]; 10 µM)?
**A.** 8%

**Q.** What about the systemic levels [15] of the same compound?
**A.** negligible

**Q.** And the “% Inh.” value ([16]; 10 µM)?
**A.** -1%

**Q.** And the “% Inh.” value ([17]; 10 µM)?
**A.** 13%

**Q.** What about the inhibition at 10 µM ([18]; 10 µM) of the same compound?
**A.** 56%

**Q.** Which inhibition at 30 µM ([3]; read-out: % Inh.) does the source give for `NC/C=C(\F)C(F)(F)S(=O)(=O)c1ccccc1` [PXS-6302] here?
**A.** 13%

**Q.** What about the “% Inh.” value ([4]; 30 µM) of the same compound?
**A.** 2%

**Q.** And the inhibition at 30 µM ([5]; read-out: % Inh.)?
**A.** 16%

**Q.** What about the inhibition at 30 µM ([6]; read-out: % Inh.) of the same compound?
**A.** 26%

**Q.** What about the IC50 [1] of the same compound?
**A.** 8570 nM

**Q.** And the inhibition at 30 µM ([7]; read-out: % Inh.)?
**A.** 10%

**Q.** What about the inhibition at 30 µM ([8]; read-out: % Inh.) of the same compound?
**A.** 5%

**Q.** What about the inhibition at 30 µM ([9]; read-out: % Inh.) of the same compound?
**A.** 6%

**Q.** And the IC50 [2]?
**A.** 430 nM

**Q.** What about the inhibition at 30 µM ([10]; read-out: % Inh.) of the same compound?
**A.** 13%

**Q.** And the “% Inh.” value ([11]; 30 µM)?
**A.** -14%

**Q.** And the inhibition at 30 µM ([12]; read-out: % Inh.)?
**A.** 0%

**Q.** And the inhibition at 30 µM ([13]; read-out: % Inh.)?
**A.** 50%

**Q.** What about the inhibition at 30 µM ([14]; read-out: % Inh.) of the same compound?
**A.** 20%

**Q.** And the systemic levels [15]?
**A.** negligible

**Q.** And the “% Inh.” value ([16]; 30 µM)?
**A.** 4%

**Q.** What about the “% Inh.” value ([17]; 30 µM) of the same compound?
**A.** 66%

**Q.** And the inhibition at 30 µM ([18]; read-out: % Inh.)?
**A.** 13%
